Source: patent publication US8637537B2, “Serine/threonine kinase inhibitors” (Genentech, Inc., priority 2011, dated 2014)
Where a name gives a salt, the structure may show the parent alone. Read-outs that look alike come from different tables or passages of the source.

Target: T1, human recombinant GST-PAK1-KD protein (Homo sapiens, UniProt Q13153)
T1 construct: residues #249-545 of human PAK1, UniProtKP/Swiss Q13153; His6 (N); made in house; host or cells: Sf9 insect cells, pAcGP67 baculovirus expression vector
T1 sequence (Q13153 249-545): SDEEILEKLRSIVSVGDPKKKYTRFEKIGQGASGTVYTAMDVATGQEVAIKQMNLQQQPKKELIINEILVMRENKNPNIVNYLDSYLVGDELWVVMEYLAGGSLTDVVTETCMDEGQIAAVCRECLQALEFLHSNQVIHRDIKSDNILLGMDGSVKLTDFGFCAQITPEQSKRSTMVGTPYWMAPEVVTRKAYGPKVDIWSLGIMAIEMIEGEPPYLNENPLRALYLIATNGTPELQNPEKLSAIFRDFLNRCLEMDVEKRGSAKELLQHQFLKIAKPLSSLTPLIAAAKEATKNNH
Assay: GST-PAK1-KD (kinase domain) biochemical assay, microfluidic mobility shift

[1] = Table I, PAK1 Ki class, read-out: Ki
[2] = Table II, PAK1 Ki class, read-out: Ki

Row | Ki [2] | Compound | further results
1 |  | C[C@H](Nc1nccc(Nc2cc(C3CCCO3)[nH]n2)n1)c1ccc2[nH]ccc2c1 (stereo partly drawn) [I-116, N^2—((S)-1-(1H-indol-5-yl)ethyl)-N^4-(5-(tetrahydrofuran-2-yl)-1H-pyrazol-3-yl)pyrimidine-2,4-diamine] | Ki [1]: 250 to 1000 nM
2 |  | Fc1cnc(NCc2ccc3[nH]cnc3c2Cl)nc1Nc1cc(C2CC2)[nH]n1 [I-117, N^2-((4-chloro-1H-benzo[d]imidazol-5-yl)methyl)-N^4-(5-cyclopropyl-1H-pyrazol-3-yl)-5-fluoropyrimidine-2,4-diamine] | Ki [1]: < 50 nM
3 |  | c1cc(CNc2nccc(Nc3cc(C4CCCO4)[nH]n3)n2)c2cc[nH]c2c1 (stereo not shown) [I-119, N^2-((1H-indol-4-yl)methyl)-N^4-(5-(tetrahydrofuran-2-yl)-1H-pyrazol-3-yl)pyrimidine-2,4-diamine] | Ki [1]: 250 to 1000 nM
4 |  | Fc1cnc(NCc2cccc3[nH]ccc23)nc1Nc1cc(C2CC2)[nH]n1 [I-120] | Ki [1]: 50 to 250 nM
5 |  | Cc1cc(Nc2ccnc(N[C@@H](C)c3ccc4[nH]cnc4c3)n2)n[nH]1 [I-121, (S)—N^2-(1-(1H-benzo[d]imidazol-5-yl)ethyl)-N^4-(5-methyl-1H-pyrazol-3-yl)pyrimidine-2,4-diamine] | Ki [1]: 250 to 1000 nM
6 |  | Cc1ccc2[nH]ccc2c1CNc1nccc(Nc2cc(C3CC3)[nH]n2)n1 [I-122, N^4-(5-Cyclopropyl-1H-pyrazol-3-yl)-N^2-((5-methyl-1H-indol-4-yl)methyl)pyrimidine-2,4-diamine] | Ki [1]: 50 to 250 nM
7 | < 50 nM | COc1c(CNc2nccc(Nc3cc(C4CC4)[nH]n3)n2)ccc2[nH]cnc12 [II-1, N^4-(5-Cyclopropyl-1H-pyrazol-3-yl)-N^2-[(4-methoxy-1H-benzimidazol-5-yl)methyl]-pyrimidine-2,4-diamine] | 
8 | < 50 nM | CN(Cc1ccc2[nH]cnc2c1Cl)c1nccc(Nc2cc(OCc3ccccc3)[nH]n2)n1 [II-3, N^4-(5-Benzyloxy-1H-pyrazol-3-yl)-N^2-[(4-chloro-1H-benzimidazol-5-yl)methyl]-N^2-methyl-pyrimidine-2,4-diamine] | 
9 | < 50 nM | Clc1c(CNc2nccc(Nc3cc(C4COC4)[nH]n3)n2)ccc2[nH]cnc12 [II-4, N^2-[(4-chloro-1H-benzimidazol-5-yl)methyl]-N^4-[5-(oxetan-3-yl)-1H-pyrazol-3-yl]pyrimidine-2,4-diamine, formic acid salt] | 
10 | < 50 nM | CN(Cc1ccc2[nH]cnc2c1Cl)c1ncc(F)c(Nc2cc(C3COC3)[nH]n2)n1 [II-5, N^2-[(4-Chloro-1H-benzimidazol-5-yl)methyl]-5-fluoro-N^2-methyl-N^4-[5-(oxetan-3-yl)-1H-pyrazol-3-yl]pyrimidine-2,4-diamine] | 
11 | < 50 nM | Clc1c(CNc2nccc(Nc3cc(OCC4CC4)[nH]n3)n2)ccc2[nH]cnc12 [II-6, N^2-(4-Chloro-1H-benzoimidazol-5-ylmethyl)-N4-(5-cyclopropylmethoxy-1H-pyrazol-3-yl)-pyrimidine-2,4-diamine] | 
12 | < 50 nM | CCc1c(CNc2nccc(Nc3cc(C4CC4)[nH]n3)n2)ccc2[nH]cnc12 [II-7, N^4-(5-Cyclopropyl-1H-pyrazol-3-yl)-N^2-[(4-ethyl-1H-benzimidazol-5-yl)methyl]pyrimidine-2,4-diamine] | 
13 | 50 to 250 nM | Cc1c(CNc2ncc(F)c(Nc3cc(C4CC4)[nH]n3)n2)ccc2[nH]cnc12 [II-8, N^4-(5-Cyclopropyl-1H-pyrazol-3-yl)-5-fluoro-N^2-[(4-methyl-1H-benzimidazol-5-yl)methyl]pyrimidine-2,4-diamine] | 
14 | 50 to 250 nM | c1cc(CNc2nccc(Nc3cc(C4COC4)[nH]n3)n2)c2cc[nH]c2c1 [II-9, N^2-(1H-indol-4-ylmethyl)-N^4-[5-(oxetan-3-yl)-1H-pyrazol-3-yl]pyrimidine-2,4-diamine] | 
15 | 50 to 250 nM | c1cncc(CN(Cc2cccc3[nH]ccc23)c2nccc(Nc3cc(C4CC4)[nH]n3)n2)c1 [II-10, N^4-(5-Cyclopropyl-1H-pyrazol-3-yl)-N^2-(1H-indol-4-ylmethyl)-N^2-(3-pyridylmethyl)pyrimidine-2,4-diamine] | 
16 | < 50 nM | Cc1n[nH]c2cc(Cl)cc(CNc3nccc(Nc4cc(C5CC5)[nH]n4)n3)c12 [II-12, N^2-((6-Chloro-3-methyl-1H-indazol-4-yl)methyl)-N^4-(5-cyclopropyl-1H-pyrazol-3-yl)pyrimidine-2,4-diamine] | 
17 | < 50 nM | Cc1cc(CNc2nccc(Nc3cc(C4CC4)[nH]n3)n2)c2cn[nH]c2c1 [II-13, N^4-(5-Cyclopropyl-1H-pyrazol-3-yl)-N^2-((6-methyl-1H-indazol-4-yl)methyl)pyrimidine-2,4-diamine] | 
18 | < 50 nM | CN(Cc1cc(Cl)cc2[nH]cnc12)c1nccc(Nc2cc(C3CC3)[nH]n2)n1 [II-14, N^2-((6-Chloro-1H-benzo[d]imidazol-4-yl)methyl)-N^4-(5-cyclopropyl-1H-pyrazol-3-yl)-N^2-methylpyrimidine-2,4-diamine] | 
19 | < 50 nM | Cc1cc2c(CNc3nccc(Nc4cc(C5CC5)[nH]n4)n3)cccc2[nH]1 [II-15, N^4-(5-Cyclopropyl-1H-pyrazol-3-yl)-N^2-((2-methyl-1H-indol-4-yl)methyl)pyrimidine-2,4-diamine] | 

Row | Ki [2] | Compound | further results
20 | < 50 nM | Cc1nc2c(CNc3nccc(Nc4cc(C5CC5)[nH]n4)n3)cc(Cl)cc2[nH]1 [II-17, N^2-((6-Chloro-2-methyl-1H-benzo[d]imidazol-4-yl)methyl)-N^4-(5-cyclopropyl-1H-pyrazol-3-yl)pyrimidine-2,4-diamine] | 
21 | < 50 nM | C[C@H](Nc1nccc(Nc2cc(C3CC3)[nH]n2)n1)c1cc(F)cc2[nH]cnc12 [II-18, (S)-N^4-(5-cyclopropyl-1H-pyrazol-3-yl)-N^2-(1-(6-fluoro-1H-benzo[d]imidazol-4-yl)ethyl)pyrimidine-2,4-diamine] | 
22 | < 50 nM | Cc1n[nH]c2cccc(CN(C)c3nccc(Nc4cc(C5CC5)[nH]n4)n3)c12 [II-19, N^4-(5-Cyclopropyl-1H-pyrazol-3-yl)-N^2-methyl-N^2-((3-methyl-1H-indazol-4-yl)methyl)pyrimidine-2,4-diamine] | 
23 | < 50 nM | Fc1ccc2[nH]ccc2c1CNc1nccc(Nc2cc(C3CC3)[nH]n2)n1 [II-20, N^4-(5-cyclopropyl-1H-pyrazol-3-yl)-N^2-((5-fluoro-1H-indol-4-yl)methyl)pyrimidine-2,4-diamine] | 
24 | < 50 nM | C[C@@H](Oc1cc(Nc2ccnc(N(C)Cc3ccc4[nH]cnc4c3Cl)n2)n[nH]1)c1ccccc1 [II-21, (R)-N^2-((4-Chloro-1H-benzo[d]imidazol-5-yl)methyl)-N^2-methyl-N^4-(5-(1-phenylethoxy)-1H-pyrazol-3-yl)pyrimidine-2,4-diamine] | 
25 | < 50 nM | COc1n[nH]c2cccc(CNc3nccc(Nc4cc(C5CC5)[nH]n4)n3)c12 [II-22, N^4-(5-Cyclopropyl-1H-pyrazol-3-yl)-N^2-((3-methoxy-1H-indazol-4-yl)methyl)pyrimidine-2,4-diamine] | 
26 | < 50 nM | Cc1cc(CNc2ncc(F)c(Nc3cc(C4CC4)[nH]n3)n2)c2cn[nH]c2c1 [II-25, N^4-(5-Cyclopropyl-1H-pyrazol-3-yl)-5-fluoro-N^2-((6-methyl-1H-indazol-4-yl)methyl)-pyrimidine-2,4-diamine] | 
27 | < 50 nM | CC(C)N(Cc1ccc2[nH]cnc2c1)c1nccc(Nc2cc(C3CC3)[nH]n2)n1 [II-26, N^2-((1H-Benzo[d]imidazol-5-yl)methyl)-N^4-(5-cyclopropyl-1H-pyrazol-3-yl)-N^2-isopropylpyrimidine-2,4-diamine] | 
28 | 50 to 250 nM | Fc1cc(CNc2nccc(Nc3cc(C4CC4)[nH]n3)n2)c2nc[nH]c2c1 [II-27, N^4-(5-Cyclopropyl-1H-pyrazol-3-yl)-N^2-((6-fluoro-1H-benzo[d]imidazol-4-yl)methyl)-pyrimidine-2,4-diamine] | 
29 | 50 to 250 nM | Cc1cc(CNc2nccc(Nc3cc(C4CC4)[nH]n3)n2)c2nc[nH]c2c1 [II-28, N^4-(5-Cyclopropyl-1H-pyrazol-3-yl)-N^2-((6-methyl-1H-benzo[d]imidazol-4-yl)methyl)-pyrimidine-2,4-diamine] | 
30 | 50 to 250 nM | COc1cc(Nc2ccnc(N(C)Cc3ccc4[nH]cnc4c3Cl)n2)n[nH]1 [II-29, N^2-((4-Chloro-1H-benzo[d]imidazol-5-yl)methyl)-N^4-(5-methoxy-1H-pyrazol-3-yl)-N^2-methylpyrimidine-2,4-diamine] | 
31 |  | COc1n[nH]c2cccc(CN(C)c3nccc(Nc4cc(C5CC5)[nH]n4)n3)c12 [II-30, N^4-(5-cyclopropyl-1H-pyrazol-3-yl)-N^2-((3-methoxy-1H-indazol-4-yl)methyl)-N^2-methylpyrimidine-2,4-diamine] | Ki: 50 to 250 nM
32 | 50 to 250 nM | Cc1cc2[nH]cnc2cc1[C@H](C)Nc1nccc(Nc2cc(C3CC3)[nH]n2)n1 [II-31, (S)-N^4-(5-Cyclopropyl-1H-pyrazol-3-yl)-N^2-(1-(6-methyl-1H-benzo[d]imidazol-5-yl)ethyl)pyrimidine-2,4-diamine] | 
33 | 50 to 250 nM | Cc1nc2c(CNc3ncc(F)c(Nc4cc(C5CC5)[nH]n4)n3)cc(Cl)cc2[nH]1 [II-32, N^2-((6-Chloro-2-methyl-1H-benzo[d]imidazol-4-yl)methyl)-N^4-(5-cyclopropyl-1H-pyrazol-3-yl)-5-fluoropyrimidine-2,4-diamine] | 
34 | 50 to 250 nM | Cc1nc2c(CNc3nccc(Nc4cc(C5CC5)[nH]n4)n3)cc(F)cc2[nH]1 [II-34, N^4-(5-Cyclopropyl-1H-pyrazol-3-yl)-N^2-((6-fluoro-2-methyl-1H-benzo[d]imidazol-4-yl)-methyl)pyrimidine-2,4-diamine] | 
35 | 50 to 250 nM | COCCN(Cc1ccc2[nH]cnc2c1)c1nccc(Nc2cc(C3CC3)[nH]n2)n1 [II-35, N^2-((1H-benzo[d]imidazol-5-yl)methyl)-N^4-(5-cyclopropyl-1H-pyrazol-3-yl)-N^2-(2-methoxyethyl)pyrimidine-2,4-diamine] | 
36 | 50 to 250 nM | CN(Cc1ccc2[nH]cnc2c1Cl)c1nccc(Nc2cc(OCc3ccccn3)[nH]n2)n1 [II-36] | 
37 | 50 to 250 nM | C[C@H](Nc1nccc(Nc2cc(C3CC3)[nH]n2)n1)c1cc2nc[nH]c2cc1Cl [II-38, (S)-N^2-(1-(6-Chloro-1H-benzo[d]imidazol-5-yl)ethyl)-N^4-(5-cyclopropyl-1H-pyrazol-3-yl)pyrimidine-2,4-diamine] | 
